Literature values in paper PMC8513424 (Laryngoscope Investigative Otolaryngology, 2021).

How the values were obtained:
[1] = test system: isogenic VS‐ and meningioma‐related cell lines with or without NF2 expression; conditions: among 19 small molecules; cited from earlier work
meningiomas = conditions: cited from earlier work

Compound: COc1ccc(-c2nc(N3CCOCC3)c3sc(CN(C)c4ncc(C(=O)NO)cn4)cc3n2)cn1 [CUDC‐907]
- Activity across schwannoma and meningioma cell models [1]: greatest activity

Compound: Cc1[nH]c2ccccc2c1CCNCc1ccc(/C=C/C(=O)NO)cc1 [panobinostat]
- Activity across schwannoma and meningioma cell models [1]: greatest activity

Compound: bevacizumab
- Response of meningiomas (meningiomas): do not respond
